In patent publication US20220160812A1, “A PHARMACEUTICALLY ACTIVE SUBSTANCE” (Cytopharma GmbH, priority 2019, published 2022):
Entries after “also recorded” stand apart in the source; their conditions may differ. Non-standard residues stand in square brackets, D forms with d. Residues, ends and D or L forms follow the SMILES beside them.

Experiments:
[1] = system: human peripheral blood mononuclear cells (Lymphocyte, PBMC); experiment: cell vitality FACS analysis (region R-1), healthy lymphocytes (PBMC); type: cell-based; settings: Protocol A, 50, 100, 200 μM, about 24 hours per Examples (FIG. 11 legend: about 2 hours)
Procedure: Human lymphocytes are obtained as peripheral blood mononuclear cells (“PBMC”) from whole blood. For this purpose, 15 ml of heparinized whole blood (heparin tube, Sarstedt) were layered on 15 ml Biocoll in LeucoSep tubes and obtained by centrifugation (10 min at 120 g) as the top layer (“lymphocytes”) and so separated from other cells. For induction with peptides, 1×10^6 lymphocytes are seeded into each well of the 48-well plates.
After addition of the peptides diluted in culture medium to the cells (MEC-1 or lymphocytes) in the respective cavity, the cells are cultured for 2 to 4 hours at 37 degrees Celsius and 5% CO2. The cell suspension is centrifuged in centrifuge tubes at 120 g, the cells are suspended in 500 μl serum-free culture medium, then 1.5 ml of cold 80% ethanol (ethanol/PBS-80/20, v/v; stored at −20 degrees Celsius) is added, the FACS tubes sealed and stored at −20 degrees Celsius for a maximum of 18 h. The cells are centrifuged for 5 min at 120 g and suspended in 2 ml PBS, then incubated for 30 min at 37 degrees Celsius. After renewed centrifugation, the cells are suspended in 0.5 ml DAPI solution and incubated for 15 min at 20 degrees Celsius in the dark. Thereafter, the cells are stored dark for a maximum of four hours in an ice bath, then the FACS analysis.
(§1) To transfer adherent cells (A375 and BxPC-3 cells) after culture, cells are washed twice with PBS. To detach the cells, the enzyme biotase is used according to the manufacturer's instructions. For this purpose, after washing with PBS, the cells are mixed with biotase (5 ml of biotase solution per 75 cm^2 surface of the cell culture bottles) and incubated for 5 min at 37 degrees Celsius, and the biotase is separated by centrifugation. Cells cultivated in suspension (MEC-1 and lymphocytes) were transferred by dilution. The cells are suspended in culture medium and counted, each time 1.5×10^5 cells/cm^2 are seeded in 48-well plates and cultured for between 1.5 and 24 hours at 37 degrees Celsius, 5% CO2. Peptides are pre-diluted from stock solution with culture medium and 200 μl of peptide solution added so that final concentrations of 30 to 500 μM peptide are present in at most 1% (v/v) DMSO. As control solutions, culture medium without peptide (DMSO-containing) in culture medium or etoposide solution is added. After incubating the cells for several hours, the cell supernatant is transferred to a FACS tube for each batch and, after washing the cells with PBS, the wash solution is added. Then the cells are incubated with 200 μl of biotase solution for 10 min, 37° C., the cells with the biotase are also transferred to the FACS tube and the cells are collected by centrifugation for 5 min. The cell pellet is suspended in 500 μl of serum-free culture medium, then 1.5 ml of cold 80% ethanol (ethanol/PBS-80/20, v/v, stored at −20° C.) is added, the FACS tubes sealed and stored at −20 degrees Celsius for 15 to 18 h. Thereafter, the cells are centrifuged for 5 minutes at 120 g, suspended after removal of the supernatant in 2 ml PBS and incubated at 37 degrees Celsius for 30 minutes. After re-centrifugation, the cells are suspended in 0.5 ml DAPI solution and incubated for 15 min at 20 degrees Celsius in the dark. Thereafter, the cells are stored dark for a maximum of four hours in an ice bath, followed by the FACS analysis.
Changes of the cell form during cell death by apoptosis are documented in the literature (Lizard et al. 1995; Taga et al. 2000; Vermes et al., 2000). The protocols for cell cultivation, treatment and preparation of the cells before flow cytometry is detailed in separate examples. Cell suspensions of cell lines A375, BxPC-3, MEC-1 or of primary lymphocytes (see separate example of lymphocyte preparation) are analyzed by flow cytometry. The data are further analyzed by using the program “Flowing Software 2”. The data of light scattering are drawn in a two-dimensional FSC/SSC plot. […]

[2] = system: A375 melanoma cells; experiment: cell vitality FACS analysis (region R-1, FSC/SSC), A375 melanoma cells; type: cell-based, human; settings: A375, Protocol A, about 24 hours, FIG. 7
Procedure: as §1
For suspension cells (MEC-1 and lymphocytes/PBMC) and for adherent cells analyzed according to Protocol A, FACS analysis to determine subG1 cell cycle and vital cell fractions was done on a Becton Dickinson LSR Fortessa flow cytometer. The analysis by FACS including subG1 and vital cell analysis according to protocol B was performed with a Cytomics FC 500 MPL flow cytometer from Beckman Coulter.
Changes of the cell form during cell death by apoptosis are documented in the literature (Lizard et al. 1995; Taga et al. 2000; Vermes et al., 2000). The protocols for cell cultivation, treatment and preparation of the cells before flow cytometry is detailed in separate examples. Cell suspensions of cell lines A375, BxPC-3, MEC-1 or of primary lymphocytes (see separate example of lymphocyte preparation) are analyzed by flow cytometry. The data are further analyzed by using the program “Flowing Software 2”. The data of light scattering are drawn in a two-dimensional FSC/SSC plot. Since the position in the FSC/SSC plot of apoptotic cells changes relative to non-apoptotic cells (Vermes et al., 2000), a region (R-1) is drawn representing mainly non-apoptotic cells and excluding cells with both low FSC and low SSC values and excluding cells with high values of FSC and/or SSC (FIG. 1). The regions are individually selected for each cell type (A375, BxPC-3, MEC-1 and primary lymphocytes). The percentage of untreated non-apoptotic cells in the region R-1 relative to total cells is set to 100%, representing 100% vital cells. The fraction (%) of cells in R-1 relative to the total number of cells in case of cell treatment by certain peptides or by cytotoxic drugs results in cell vitality, below 100%, thereby indicating a loss of cell vitality by the treatment. […]

CSCC[C@@H](NC(=O)[C@@H](Cc1c[nH]c2ccccc12)NC(=O)[C@@H](CCCCN)NC(=O)[C@H](N)CCCCN)C(=O)N[C@@H](C(=O)N[C@@H](C(=O)N[C@H](Cc1ccc(O)cc1)C(=O)N[C@H](Cc1ccccc1)C(=O)N[C@H](CCCNC(=N)N)C(=O)O)C(C)C)C(C)C [SEQID No 25, k-k-w-m-v-v-y-f-r] (H-[dK][dK][dW][dM][dV][dV][dY][dF][dR]-OH; N-terminus and C-terminus assumed)
tolerance by healthy Lymphocyte (PBMC) cells (cell vitality) [1]: not so well tolerated by the healthy cells

CSCC[C@@H](NC(=O)[C@@H](Cc1c[nH]c2ccccc12)NC(=O)[C@H](N)CCCCN)C(=O)N[C@@H](C(=O)N[C@@H](C(=O)N[C@H](Cc1ccc(O)cc1)C(=O)N[C@H](Cc1ccccc1)C(=O)N[C@H](CCCNC(=N)N)C(=O)N[C@H](CCCCN)C(=O)O)C(C)C)C(C)C [SEQID No 26, k-w-m-v-v-y-f-r-k] (H-[dK][dW][dM][dV][dV][dY][dF][dR][dK]-OH; N-terminus and C-terminus assumed)
tolerance by healthy Lymphocyte (PBMC) cells (cell vitality) [1]: not so well tolerated by the healthy cells

CSCC[C@@H](NC(=O)[C@@H](Cc1c[nH]c2ccccc12)NC(=O)[C@@H](CCCCN)NC(=O)[C@H](N)CCCCN)C(=O)N[C@@H](C(=O)N[C@@H](C(=O)N[C@H](Cc1ccc(O)cc1)C(=O)N[C@H](Cc1ccccc1)C(=O)N[C@H](CCCNC(=N)N)C(=O)N[C@H](CCCCN)C(=O)O)C(C)C)C(C)C [SEQID No 27, k-k-w-m-v-v-y-f-r-k] (H-[dK][dK][dW][dM][dV][dV][dY][dF][dR][dK]-OH; N-terminus and C-terminus assumed)
tolerance by healthy Lymphocyte (PBMC) cells (cell vitality) [1]: not remarkably damaged; also recorded: very good tolerated by the healthy cells (low toxic effect)

CSCC[C@@H](NC(=O)[C@@H](Cc1c[nH]c2ccccc12)NC(=O)[C@@H](CCCCN)NC(=O)[C@H](N)CCCCN)C(=O)N[C@@H](C(=O)N[C@@H](C(=O)N[C@H](Cc1ccc(O)cc1)C(=O)N[C@H](Cc1ccccc1)C(=O)N[C@H](CCCNC(=N)N)C(=O)N[C@H](CCCCN)C(=O)N[C@H](CO)C(=O)N[C@H](CO)C(=O)N[C@H](CCCNC(=N)N)C(=O)O)C(C)C)C(C)C [SEQID No 30, k-k-w-m-v-v-y-f-r-k-s-s-r] (H-[dK][dK][dW][dM][dV][dV][dY][dF][dR][dK][dS][dS][dR]-OH; N-terminus and C-terminus assumed)
tolerance by healthy Lymphocyte (PBMC) cells (cell vitality) [1]: well tolerated | tolerance by healthy Lymphocyte (PBMC) cells (cell vitality) ([1]; listed as SEQID NO 30): not remarkably damaged

CSCC[C@@H](NC(=O)[C@@H](Cc1c[nH]c2ccccc12)NC(=O)[C@@H](CCCCN)NC(=O)[C@@H](CCCCN)NC(=O)[C@@H](CO)NC(=O)[C@@H](CCCNC(=N)N)NC(=O)[C@H](N)CCC(=O)O)C(=O)N[C@@H](C(=O)N[C@@H](C(=O)N[C@H](Cc1ccc(O)cc1)C(=O)N[C@H](Cc1ccccc1)C(=O)N[C@H](CCCNC(=N)N)C(=O)N[C@H](CCCCN)C(=O)O)C(C)C)C(C)C [SEQID No 31, e-r-s-k-k-w-m-v-v-y-f-r-k] (H-[dE][dR][dS][dK][dK][dW][dM][dV][dV][dY][dF][dR][dK]-OH; N-terminus and C-terminus assumed)
tolerance by healthy Lymphocyte (PBMC) cells (cell vitality) [1]: not remarkably damaged

CSCC[C@@H](NC(=O)[C@@H](Cc1c[nH]c2ccccc12)NC(=O)[C@@H](CCCCN)NC(=O)[C@H](N)CCCCN)C(=O)N[C@@H](C(=O)N[C@@H](C(=O)N[C@H](Cc1ccc(O)cc1)C(=O)N[C@H](Cc1ccccc1)C(=O)N[C@H](CCCNC(=N)N)C(=O)N[C@H](CCCCN)C(=O)N[C@H](CCC(=O)O)C(=O)N[C@H](C)C(=O)N[C@H](CCCNC(=N)N)C(=O)O)C(C)C)C(C)C [SEQID No 32, k-k-w-m-v-v-y-f-r-k-e-a-r] (H-[dK][dK][dW][dM][dV][dV][dY][dF][dR][dK][dE][dA][dR]-OH; N-terminus and C-terminus assumed)
tolerance by healthy Lymphocyte (PBMC) cells (cell vitality) [1]: not remarkably damaged

CSCC[C@@H](NC(=O)[C@@H](Cc1c[nH]c2ccccc12)NC(=O)[C@@H](CCCCN)NC(=O)[C@@H](CCCCN)NC(=O)[C@H](NC(=O)[C@@H](CO)NC(=O)[C@H](N)CCCNC(=N)N)[C@H](C)O)C(=O)N[C@@H](C(=O)N[C@@H](C(=O)N[C@H](Cc1ccc(O)cc1)C(=O)N[C@H](Cc1ccccc1)C(=O)N[C@H](CCCNC(=N)N)C(=O)N[C@H](CCCCN)C(=O)O)C(C)C)C(C)C [SEQID No 33, r-s-t-k-k-w-m-v-v-y-f-r-k] (H-[dR][dS][dT][dK][dK][dW][dM][dV][dV][dY][dF][dR][dK]-OH; N-terminus and C-terminus assumed)
tolerance by healthy Lymphocyte (PBMC) cells (cell vitality) [1]: not remarkably damaged; also recorded: well tolerated

d-k-w-m-v-v-y-f-r-d [SEQID No 39]
decrease of cell vitality, comparison in words ([2]; 100 μM): higher apoptosis rate at a concentration of 100 μM as peptide SEQID NO 27 | decrease of cell vitality, comparison in words ([2]; any concentration (100, 200, 500 μM)): significantly greater decrease than the peptide of the prior art (Peptide SEQ C1)
